We go through 1 molecule from patent US20250344734A1, “UNSATURATED FATTY ACIDS AND THEIR USE TO MODIFY TASTE” (Firmenich Incorporated, priority 2022, published 2025).

Holding throughout (assay type): cell-based
Holding throughout (conditions): unsaturated fatty acid concentration of 200 µM, cells stimulated with known bitter agonist

The target in one assay is T1, T2R13 (TAS2R13) (Homo sapiens, UniProt Q9NYV9).
T1 construct: expressed in transfected cells; host or cells: cells expressing a promiscuous G protein (e.g., G16g44)
T1 sequence (Q9NYV9 1-303): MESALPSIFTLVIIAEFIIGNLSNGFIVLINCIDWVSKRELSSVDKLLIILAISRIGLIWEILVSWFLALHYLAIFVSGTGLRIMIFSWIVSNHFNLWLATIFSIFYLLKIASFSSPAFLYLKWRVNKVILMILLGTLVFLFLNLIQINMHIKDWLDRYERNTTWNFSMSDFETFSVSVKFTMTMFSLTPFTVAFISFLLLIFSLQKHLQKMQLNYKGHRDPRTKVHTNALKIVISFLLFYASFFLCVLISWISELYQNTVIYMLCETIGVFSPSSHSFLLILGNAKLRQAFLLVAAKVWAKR
As to the kind of experiment: FLIPR calcium assay, block of bitter agonist response, T2R13. On the procedure: (§1) Cells expressing a promiscuous […] (e.g., G16g44) were transfected with vectors encoding 18 functional bitter receptor cDNAs, with one receptor per transfection. The cells were transfected directly in 384-well format high-density plates and incubated for 28 hours. Later, cells were loaded with the Ca-specific dye Fluo4-AM. After an incubation of 60 minutes, excess dye is washed off, and cells are stimulated with a known bitter agonist for each receptor and various unsaturated fatty acids. Changes in intracellular fluorescence are recorded using a FLIPR instrument. Bitter antagonists and corresponding receptors are identified based on percentage inhibition of agonist's activity on a given receptor.
(§2) The above protocol was carried out using 16 different unsaturated fatty acids. A particular T2R receptor was identified as being antagonized by a particular unsaturated fatty acid if it triggered a >25% block of agonist's cellular response at 200 μM concentration of unsaturated fatty acid. […] Table 2 indicates the sixteen (16) compounds tested by their compound number from Table 1 above. The 18 bitter taste receptors screened are the human bitter taste receptors we named. […]

The next assay has as its target T2, T2R61 (TAS2R43) (Homo sapiens, UniProt P59537).
T2 construct: expressed in transfected cells; host or cells: cells expressing a promiscuous G protein (e.g., G16g44)
T2 sequence (P59537 1-309): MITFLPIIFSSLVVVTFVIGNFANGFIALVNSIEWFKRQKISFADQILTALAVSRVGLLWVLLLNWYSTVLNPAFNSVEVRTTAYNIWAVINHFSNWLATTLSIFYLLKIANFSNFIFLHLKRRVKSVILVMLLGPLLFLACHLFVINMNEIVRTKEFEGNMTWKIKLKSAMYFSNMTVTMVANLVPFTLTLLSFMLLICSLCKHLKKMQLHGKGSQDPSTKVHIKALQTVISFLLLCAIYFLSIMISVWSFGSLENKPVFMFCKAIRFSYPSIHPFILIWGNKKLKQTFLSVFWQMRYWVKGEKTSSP
Description: FLIPR calcium assay, block of bitter agonist response, T2R61. Here is the method: as §1, §2

The next assay deals with T3, T2R16 (TAS2R16) (Homo sapiens, UniProt Q9NYV7).
T3 construct: expressed in transfected cells; host or cells: cells expressing a promiscuous G protein (e.g., G16g44)
T3 sequence (Q9NYV7 1-291): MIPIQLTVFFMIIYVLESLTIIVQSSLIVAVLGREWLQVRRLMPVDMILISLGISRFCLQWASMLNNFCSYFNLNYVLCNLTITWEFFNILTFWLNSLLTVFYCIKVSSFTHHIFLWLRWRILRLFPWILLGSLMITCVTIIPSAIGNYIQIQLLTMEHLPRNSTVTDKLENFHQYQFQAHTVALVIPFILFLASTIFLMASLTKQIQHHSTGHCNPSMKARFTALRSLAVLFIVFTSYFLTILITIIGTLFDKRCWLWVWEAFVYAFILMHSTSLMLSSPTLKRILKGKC
As to the kind of experiment: FLIPR calcium assay, block of bitter agonist response, T2R16. On the procedure: as §1, §2

In the next assay the target is T4, T2R71 (TAS2R41) (Homo sapiens, UniProt P59536).
T4 construct: expressed in transfected cells; host or cells: cells expressing a promiscuous G protein (e.g., G16g44)
T4 sequence (P59536 1-307): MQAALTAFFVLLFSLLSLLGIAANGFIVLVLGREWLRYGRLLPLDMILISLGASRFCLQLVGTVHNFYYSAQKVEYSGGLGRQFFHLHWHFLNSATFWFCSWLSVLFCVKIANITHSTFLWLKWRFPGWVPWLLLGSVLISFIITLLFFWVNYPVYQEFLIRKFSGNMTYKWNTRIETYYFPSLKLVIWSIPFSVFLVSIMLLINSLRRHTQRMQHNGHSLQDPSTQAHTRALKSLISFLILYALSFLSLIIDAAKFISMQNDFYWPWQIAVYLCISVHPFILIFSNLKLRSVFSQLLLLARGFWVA
As to the kind of experiment: FLIPR calcium assay, block of bitter agonist response, T2R71. On the procedure: as §1, §2

A further assay addresses T5, T2R67 (TAS2R50) (Homo sapiens, UniProt P59544).
T5 construct: expressed in transfected cells; host or cells: cells expressing a promiscuous G protein (e.g., G16g44)
T5 sequence (P59544 1-299): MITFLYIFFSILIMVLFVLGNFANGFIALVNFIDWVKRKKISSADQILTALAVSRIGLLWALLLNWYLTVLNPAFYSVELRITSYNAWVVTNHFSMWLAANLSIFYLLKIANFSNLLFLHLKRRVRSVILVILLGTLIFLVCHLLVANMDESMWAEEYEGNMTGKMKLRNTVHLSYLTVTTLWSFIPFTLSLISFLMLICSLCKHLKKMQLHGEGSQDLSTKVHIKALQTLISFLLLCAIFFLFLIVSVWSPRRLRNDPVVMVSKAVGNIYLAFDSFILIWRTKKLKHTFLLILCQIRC
As to the kind of experiment: FLIPR calcium assay, block of bitter agonist response, T2R67. Here is the method:
as §1, §2

For a further assay, the target named is T6, T2R04 (TAS2R04) (Homo sapiens, UniProt Q9NYW5).
T6 construct: expressed in transfected cells; host or cells: cells expressing a promiscuous G protein (e.g., G16g44)
T6 sequence (Q9NYW5 1-299): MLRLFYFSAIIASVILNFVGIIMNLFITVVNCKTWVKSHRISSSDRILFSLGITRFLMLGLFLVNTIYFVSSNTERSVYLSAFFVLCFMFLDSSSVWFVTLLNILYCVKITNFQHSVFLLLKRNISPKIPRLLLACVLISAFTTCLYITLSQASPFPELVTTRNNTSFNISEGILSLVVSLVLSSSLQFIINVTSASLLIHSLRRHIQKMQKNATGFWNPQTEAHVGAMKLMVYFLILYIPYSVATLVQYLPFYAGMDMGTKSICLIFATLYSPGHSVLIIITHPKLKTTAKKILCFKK
As to the kind of experiment: FLIPR calcium assay, block of bitter agonist response, T2R04. On the procedure:
as §1, §2

A further assay concerns the target T7, T2R03 (TAS2R03) (Homo sapiens, UniProt Q9NYW6).
T7 construct: expressed in transfected cells; host or cells: cells expressing a promiscuous G protein (e.g., G16g44)
T7 sequence (Q9NYW6 1-316): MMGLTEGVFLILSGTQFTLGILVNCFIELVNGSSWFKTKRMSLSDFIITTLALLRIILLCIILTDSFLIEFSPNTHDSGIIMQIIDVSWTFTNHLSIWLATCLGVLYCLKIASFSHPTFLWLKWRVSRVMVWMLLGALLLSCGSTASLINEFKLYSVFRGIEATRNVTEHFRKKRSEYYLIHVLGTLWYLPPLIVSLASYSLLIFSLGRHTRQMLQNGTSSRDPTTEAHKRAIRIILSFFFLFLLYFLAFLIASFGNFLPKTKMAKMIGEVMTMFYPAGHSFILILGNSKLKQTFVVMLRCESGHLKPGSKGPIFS
Description: FLIPR calcium assay, block of bitter agonist response, T2R03. Here is the method: as §1, §2

The next assay deals with T8, T2R63 (TA2R20) (Homo sapiens, UniProt P59543).
T8 construct: expressed in transfected cells; host or cells: cells expressing a promiscuous G protein (e.g., G16g44)
T8 sequence (P59543 1-309): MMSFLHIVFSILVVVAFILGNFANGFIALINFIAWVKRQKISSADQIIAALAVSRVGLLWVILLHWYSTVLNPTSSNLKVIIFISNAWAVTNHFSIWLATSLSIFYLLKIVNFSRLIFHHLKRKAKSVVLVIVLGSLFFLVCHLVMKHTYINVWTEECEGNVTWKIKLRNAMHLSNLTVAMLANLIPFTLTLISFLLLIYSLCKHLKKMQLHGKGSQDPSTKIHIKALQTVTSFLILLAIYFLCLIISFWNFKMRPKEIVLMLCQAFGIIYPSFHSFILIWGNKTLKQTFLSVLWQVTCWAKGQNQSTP
As to the kind of experiment: FLIPR calcium assay, block of bitter agonist response, T2R63. Here is the method: as §1, §2

SMILES strings stand for the structures.

In the case of `CCCCC/C=C/C(=O)O` [Compound 103], the “percentage block of cellular response over baseline, 13” value at T2R13 (TAS2R13) was greater than 30%. For the same molecule, the “percentage block of cellular response over baseline, 61” value on T2R61 (TAS2R43) is greater than 85%. For the same molecule, the “percentage block of cellular response over baseline, 16” value at T2R16 (TAS2R16) is recorded as greater than 25%. Also, the “percentage block of cellular response over baseline, 71” value at T2R71 (TAS2R41) was greater than 30%. The “percentage block of cellular response over baseline, 67” value on T2R67 (TAS2R50) is 30%. For the same molecule, the “percentage block of cellular response over baseline, 04” value on T2R04 (TAS2R04) is on record as greater than 99%. For the same molecule, the “percentage block of cellular response over baseline, 03” value at T2R03 (TAS2R03) is listed as greater than 30%. In addition, the “percentage block of cellular response over baseline, 63” value on T2R63 (TA2R20) stood at 30%.
